Measured values published in US20060079453A1, “Hla binding peptides and their uses” (priority 2002, published 2006).
Where two headings read alike, the source gives them in different places. No end group written: not given here.

How the values were obtained:
Assay in all cases: biochemical
Type in all cases: binding
[1] = molecular target: HLA-DR DRB1*0101 (DR1) (Homo sapiens, UniProt P01903+P01911, A100R/D57E/F55L/F60I/F76Y/I96L/L162R/M171V/P40L/Q125E/R42F/V115G/Y59C)
[2] = molecular target: HLA-DR DRB1*0301 (DR3) (Homo sapiens, UniProt P01903+P01911, A100K/A102G/A103R/A169T/F55Y/I96L/K41T/L162R/M171V/P40S/Q125H/Q178H/Q39Y/R42S/S66N/T106N/T262R/W38E/Y61H)
[3] = molecular target: HLA-DR DRB1*0401 (DR4) (Homo sapiens, UniProt P01903+P01911, A100K/A169T/F76Y/I96L/K127E/L162R/M171V/N62H/P40V/Q125Y/R42H/S133A/S149N/S66Y/V115G/V209L/W38E)
[4] = molecular target: HLA-DR DRB1*0405 (DR4) (Homo sapiens, UniProt P01903+P01911, A100R/A169T/D86S/F76Y/I96L/K127E/L162R/M171V/N62H/P40V/Q125Y/R42H/S133A/S149N/S66Y/V115G/V209L/W38E)
[5] = molecular target: HLA-DR DRB1*0701 (DR7) (Homo sapiens, UniProt P01903+P01911, A100R/A102G/A103Q/D57E/D86V/E43K/F76Y/K127E/L162R/M171V/P40G/Q125H/Q99D/R33Q/R42Y/R54Q/S133A/S66F/T210M/V115G/Y107V/Y59L/Y89S)
[6] = molecular target: HLA-DR DRB1*0802 (DR8) (Homo sapiens, UniProt P01903+P01911, A100R/A103L/A169T/F76Y/H45Y/I96F/K41T/L162R/M171V/P40S/Q125H/Q178H/Q39Y/Q99D/R218S/R42G/S66Y/V115G/W38E)
[7] = molecular target: HLA-DR DRB1*0901 (DR9) (Homo sapiens, UniProt P01903+P01911, A100R/A103E/D57H/D86V/F55Y/F60I/F76Y/I96F/K127E/L162R/M171V/P40D/Q125H/Q99R/R33Q/R42F/S133A/S66N/T210M/V115G/W38K/Y107V/Y59G/Y89S)
[8] = molecular target: HLA-DR DRB1*1101 (DR11) (Homo sapiens, UniProt P01903+P01911, A100R/A169T/A87E/I96F/K41T/L162R/M171V/P40S/Q125H/Q178H/Q39Y/Q99D/R42S/S66Y/T262R/V115G/W38E)
[9] = molecular target: HLA-DR DRB1*1302 (DR13) (Homo sapiens, UniProt P01903+P01911, A100E/A169T/K41T/L162R/M171V/P40S/Q125H/Q178H/Q39Y/Q99D/R42S/S66N/T262R/V115G/W38E/Y61H)
[10] = molecular target: HLA-DR DRB1*1501 (DR15) (Homo sapiens, UniProt P01903+P01911)
[11] = molecular target: HLA-DR DRB4*0101 (DR53) (Homo sapiens, UniProt P01903+P13762, G164S)
[12] = molecular target: HLA-DR DRB5*0101 (DR51) (Homo sapiens, UniProt P01903+Q30154)
[13] = molecular target: HLA-DR DRB3*0101 (DR52) (Homo sapiens, UniProt P01903+P79483)

Sequence of HLA-DR DRB1*1101 (DR11) (P01903 26-254 limits assumed, other chains not shown): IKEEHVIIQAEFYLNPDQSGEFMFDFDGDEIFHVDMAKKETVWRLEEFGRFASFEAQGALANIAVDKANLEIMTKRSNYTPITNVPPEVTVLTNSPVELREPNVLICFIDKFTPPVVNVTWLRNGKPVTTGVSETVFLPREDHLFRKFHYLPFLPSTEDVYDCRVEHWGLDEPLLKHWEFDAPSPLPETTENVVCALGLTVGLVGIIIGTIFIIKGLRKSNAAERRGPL
Sequence of HLA-DR DRB1*1302 (DR13) (P01903 26-254 limits assumed, other chains not shown): as above
Sequence of HLA-DR DRB1*0301 (DR3) (P01903 26-254 limits assumed, other chains not shown): as above

With YLVTGERGFFYTKYT the IC50 ([1]; read-out: DRB1 *0101) was 1.15 µM, the IC50 ([2]; read-out: DRB1 *0301) was 4.8 µM and the IC50 ([3]; read-out: DRB1 *0401) was > 20.5 µM. The IC50 ([4]; read-out: DRB1 *0405) was > 30.1 µM, the IC50 ([5]; read-out: DRB1 *0701) was 0.078 µM and the IC50 ([6]; read-out: DRB1 *0802) was 4.3 µM. It also gave an IC50 ([7]; read-out: DRB1 *0901) of 195 µM.
With FPDWQNYTPGPGTRF the IC50 [2] was > 224 µM, the IC50 ([3]; DRB1 *0401) was 23.4 µM and the IC50 ([4]; DRB1 *0405) was > 10.1 µM. The IC50 ([5]; DRB1 *0701) was 59.6 µM, the IC50 [6] was 0.592 µM and the IC50 ([7]; DRB1 *0901) was 3.01 µM. For the same compound, the IC50 ([8]; DRB1 *1101) was > 51.3 µM, the IC50 ([9]; DRBI *1302) was > 12 µM and the IC50 ([10]; DRBI *1501) was 35.1 µM. For the same compound, the IC50 ([11]; DRB4 *0101) was 33.9 µM and the IC50 ([12]; DRB5 *0101) was > 20.5 µM.
GAPLGAAARALAHGV was tested, and the IC50 [1] was 0.226 µM, the IC50 [4] was > 13 µM and the IC50 [5] was 6.49 µM. It also gave an IC50 [8] of 0.036 µM, an IC50 [9] of 15.1 µM and an IC50 [10] of 3.92 µM. The IC50 [13] was > 71 µM, the IC50 [11] was 16.5 µM and the IC50 [12] was 4.5 µM.
For `CC(C)C[C@H](N)C(=O)N[C@@H](CCC(=O)O)C(=O)N1CCC[C@H]1C(=O)N[C@@H](Cc1c[nH]c2ccccc12)C(=O)N[C@@H](CC(N)=O)C(=O)N[C@@H](Cc1c[nH]cn1)C(=O)N1CCC[C@H]1C(=O)NCC(=O)N[C@@H](CO)C(=O)N[C@@H](CCC(N)=O)C(=O)N1CCC[C@H]1C(=O)N[C@@H](CCCCN)C(=O)N[C@H](C(=O)N[C@@H](C)C(=O)N[C@@H](CS)C(=O)N[C@H](C(=O)O)[C@@H](C)O)[C@@H](C)O`, the IC50 [1] was > 33.6 µM, the IC50 [2] was > 328 µM and the IC50 [3] was > 33.3 µM. The IC50 [4] was > 8.23 µM, the IC50 [5] was > 72.3 µM and the IC50 [6] was 69.2 µM. For the same compound, the IC50 [7] was 34.5 µM, the IC50 [8] was > 15.3 µM and the IC50 [9] was > 11 µM. For the same compound, the IC50 [11] was 0.092 µM and the IC50 [12] was 2.94 µM.
`CC[C@H](C)[C@H](NC(=O)[C@H](CCCCN)NC(=O)[C@H](CC(N)=O)NC(=O)[C@@H](NC(=O)[C@@H](NC(=O)[C@H](CC(C)C)NC(=O)[C@@H](NC(=O)[C@H](CO)NC(=O)[C@H](CC(C)C)NC(=O)[C@H](C)NC(=O)[C@H](CCC(=O)O)NC(=O)CN)[C@@H](C)O)C(C)C)C(C)C)C(=O)N[C@@H](CCCNC(=N)N)C(=O)NCC(=O)N[C@H](C(=O)O)[C@@H](C)O` was tested, and the IC50 [2] was 29.7 µM, the IC50 [4] was 30.1 µM and the IC50 [6] was 0.383 µM. The IC50 [7] was 40.8 µM, the IC50 [8] was 0.977 µM and the IC50 [9] was 0.055 µM. It also gave an IC50 [11] of 1.51 µM and an IC50 ([12]; DRB5 *0101) of 0.108 µM.
In the case of `CC[C@H](C)[C@H](NC(=O)[C@H](CCCCN)NC(=O)[C@H](CC(N)=O)NC(=O)[C@@H](NC(=O)[C@@H](NC(=O)[C@H](CC(C)C)NC(=O)[C@@H](NC(=O)[C@H](CO)NC(=O)[C@H](CC(C)C)NC(=O)[C@H](C)N)[C@@H](C)O)C(C)C)C(C)C)C(=O)N[C@@H](CCCNC(=N)N)C(=O)NCC(=O)N[C@H](C(=O)N[C@@H](Cc1ccccc1)C(=O)N[C@@H](CCCCN)C(=O)O)[C@@H](C)O`, the IC50 [1] is reported as 0.075 µM, the IC50 [2] is reported as 0.274 µM and the IC50 [3] is reported as 0.648 µM. For the same compound, the IC50 [4] was 3.63 µM, the IC50 [5] was 0.396 µM and the IC50 [6] was 0.02 µM. For the same compound, the IC50 [7] was 18 µM.
In the case of GAPLGGAARALAHGV, the IC50 ([1]; DRB1 *0101) is reported as 0.69 µM, the IC50 ([4]; DRB1 *0405) is reported as > 13 µM and the IC50 ([8]; DRB1 *1101) is reported as 0.024 µM. The IC50 ([9]; DRBI *1302) was 8.74 µM, the IC50 ([10]; DRBI *1501) was 1.61 µM and the IC50 [13] was > 71 µM. It also gave an IC50 ([12]; DRB5 *0101) of 12 µM.
With QLCFLKKGLGISYGR the IC50 [2] was 158 µM, the IC50 [3] was 4.44 µM and the IC50 [4] was 0.443 µM. It also gave an IC50 [5] of 3.63 µM, an IC50 [6] of 0.04 µM and an IC50 [7] of 0.2 µM. For the same compound, the IC50 [8] was 0.0095 µM and the IC50 [9] was 0.088 µM.
HLDMLRHLYQGCQVV showed an IC50 ([1]; DRB1 *0101) of 0.304 µM, an IC50 [2] of 37.6 µM and an IC50 ([3]; DRB1 *0401) of 9.42 µM. The IC50 ([4]; DRB1 *0405) was 3.59 µM, the IC50 ([5]; DRB1 *0701) was 27 µM and the IC50 ([9]; DRBI *1302) was 2.88 µM. It also gave an IC50 ([10]; DRBI *1501) of 0.359 µM, an IC50 [13] of 107 µM and an IC50 ([11]; DRB4 *0101) of 0.163 µM. It also gave an IC50 ([12]; DRB5 *0101) of 7.09 µM.
For TLERPKTLSPQKNGV, the IC50 ([2]; read-out: DRB1 *0301) was 134 µM, the IC50 ([3]; read-out: DRB1 *0401) was > 22.5 µM and the IC50 ([4]; read-out: DRB1 *0405) was > 28.6 µM. The IC50 ([5]; read-out: DRB1 *0701) was 26 µM, the IC50 ([6]; read-out: DRB1 *0802) was > 75.4 µM and the IC50 ([7]; read-out: DRB1 *0901) was > 300 µM.
VNFYAWKRMEVGQQA was tested, and the IC50 ([1]; DRB1 *0101) was 0.193 µM, the IC50 [2] was 2.87 µM and the IC50 ([3]; DRB1 *0401) was 0.01 µM. For the same compound, the IC50 ([4]; DRB1 *0405) was 0.015 µM, the IC50 ([5]; DRB1 *0701) was 40.2 µM and the IC50 [6] was 0.035 µM. The IC50 ([7]; DRB1 *0901) was 1.24 µM, the IC50 ([8]; DRB1 *1101) was 0.05 µM and the IC50 ([9]; DRBI *1302) was 14.8 µM. For the same compound, the IC50 ([11]; DRB4 *0101) was 1.49 µM.
